SMILES strings stand for the structures.

This passage reports IC50 results from patent US20240383904A1, “HETEROCYCLIC COMPOUNDS” (Hoffmann-La Roche Inc., priority 2021, published 2024).

The target in this test is T1, MAGL (Homo sapiens, UniProt Q99685).
T1 sequence (Q99685 1-303): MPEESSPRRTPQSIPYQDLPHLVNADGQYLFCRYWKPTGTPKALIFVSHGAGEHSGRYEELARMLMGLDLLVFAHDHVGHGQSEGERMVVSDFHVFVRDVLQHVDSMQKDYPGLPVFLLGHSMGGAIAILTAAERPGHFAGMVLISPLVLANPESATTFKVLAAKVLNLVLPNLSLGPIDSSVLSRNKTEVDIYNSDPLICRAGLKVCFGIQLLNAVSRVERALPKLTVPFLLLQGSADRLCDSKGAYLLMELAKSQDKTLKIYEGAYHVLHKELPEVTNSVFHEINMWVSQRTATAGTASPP
As to the kind of experiment: 2-AG assay: MAGL inhibitory activity by hydrolysis of 2-arachidonoylglycerol to arachidonic acid, followed by mass spectrometry. In kind it is biochemical. The following applies: 15 min preincubation, 30 min reaction at RT, 8 μM 2-arachidonoylglycerol.
The term IC50 denotes the concentration needed to halve the response being measured. Read a high IC50 as weaker potency in that assay. With `N#Cc1ccc(CC2CC3(C2)CN(C(=O)N2CC4(CCCC(=O)N4)C2)C3)c(F)c1` [Example 273, 3-fluoro-4-[[2-(6-oxo-2,5-diazaspiro[3.5]nonane-2-carbonyl)-2-azaspiro[3.3]heptan-6-yl]methyl]benzonitrile], 68.2 nM corresponded to half-maximal inhibition (IC50). That is a double-digit nanomolar value.
`O=C1CCCC2(CN(C(=O)N3CC4(CC(Cn5cc(C(F)(F)F)cn5)C4)C3)C2)N1` [Example 274, 2-[6-[[4-(trifluoromethyl)pyrazol-1-yl]methyl]-2-azaspiro[3.3]heptane-2-carbonyl]-2,5-diazaspiro[3.5]nonan-6-one] came in with an IC50 of 540 nM.
`Cn1nc(CC2CC3(C2)CN(C(=O)N2CC4(CCCC(=O)N4)C2)C3)cc1C(F)(F)F` [Example 275, 2-[6-[[1-methyl-5-(trifluoromethyl)pyrazol-3-yl]methyl]-2-azaspiro[3.3]heptane-2-carbonyl]-2,5-diazaspiro[3.5]nonan-6-one] had an IC50 of 104 nM. Compared with the last compound, the IC50 is about 5.2-fold lower.
With `Cn1ncc(CC2CC3(C2)CN(C(=O)N2CC4(CCCC(=O)N4)C2)C3)c1C(F)(F)F` [Example 276] the figure was 92.7 nM.
`Cn1ncc(C(F)(F)F)c1CC1CC2(C1)CN(C(=O)N1CC3(CCCC(=O)N3)C1)C2` [Example 277, 2-[6-[[2-methyl-4-(trifluoromethyl)pyrazol-3-yl]methyl]-2-azaspiro[3.3]heptane-2-carbonyl]-2,5-diazaspiro[3.5]nonan-6-one]: the IC50 was 195 nM.
Take `O=C1CCCC2(CN(C(=O)N3CC4(CC(Cc5cc(C(F)(F)F)n[nH]5)C4)C3)C2)N1` [Example 278, 2-[6-[[3-(trifluoromethyl)-1H-pyrazol-5-y1]methyl]-2-azaspiro[3.3]heptane-2-carbonyl]-2,5-diazaspiro[3.5]nonan-6-one]: the IC50 was determined as 479 nM.
`O=C1CCCC2(CN(C(=O)N3CC4(CC(Cc5cc(C(F)F)n[nH]5)C4)C3)C2)N1` [Example 279, 2-[6-[[3-(difluoromethyl)-1H-pyrazol-5-yl]methyl]-2-azaspiro[3.3]heptane-2-carbonyl]-2,5-diazaspiro[3.5]nonan-6-one] had an IC50 of 1030 nM. Compared with the last compound, the IC50 is about 2.2-fold higher.
Turning to `O=C1CCC2(CN(C(=O)N3CC4(CC(S(=O)(=O)c5cccc(OC(F)(F)F)c5)C4)C3)C2)N1` [Example 280, 2-[6-[3-(trifluoromethoxy)phenyl]sulfonyl-2-azaspiro[3.3]heptane-2-carbonyl]2,5-diazaspiro[3.4]octan-6-one], the IC50 came out at 195 nM.
The same measure for `O=C1CCC2(CN(C(=O)N3CC4(CCC(S(=O)(=O)c5ccc(C(F)(F)F)cc5)CC4)C3)C2)N1` [Example 281, 2-[7-[4-(trifluoromethyl)phenyl]sulfonyl-2-azaspiro[3.5]nonane-2-carbonyl]-2,5-diazaspiro[3.4]octan-6-one]: 6.44 nM; for `O=C1CCC2(CN(C(=O)N3CC4(CCC(S(=O)(=O)c5cccc(C(F)(F)F)c5)CC4)C3)C2)N1` [Example 282, 2-[7-[3-(trifluoromethyl)phenyl]sulfonyl-2-azaspiro[3.5]nonane-2-carbonyl]-2,5-diazaspiro[3.4]octan-6-one]: 37.2 nM.
Consider `N=[S@](=O)(c1ccc(CC2CC3(C2)CN(C(=O)N2CC4(CCC(=O)N4)C2)C3)cc1)C(F)(F)F` [Example 283, 2-[6-[[4-(trifluoromethylsulfoni-midoyl)phenyl]methyl]-2-azaspiro[3.3]heptane-2-carbonyl]-2,5-diazaspiro[3.4]octan-6-one], for which it took 0.62 nM to reach half-maximal inhibition (IC50).
The same measure for `N=[S@](=O)(c1ccc(CC2CC3(C2)CN(C(=O)N2CC4(COCC(=O)N4)C2)C3)cc1)C(F)(F)F` [Example 285, 2-[6-[[4-(trifluoromethylsulfoni-midoyl)phenyl]methyl]-2-azaspiro[3.3]heptane-2-carbonyl]-8-oxa-2,5-diazaspiro[3.5]nonan-6-one]: 4.95 nM; for `N=[S@@](=O)(c1ccc(CC2CC3(C2)CN(C(=O)N2CC4(CCC(=O)N4)C2)C3)cc1)C(F)(F)F` [Example 286, 2-[6-[[4-(trifluoromethylsulfoni-midoyl)phenyl]methyl]-2-azaspiro[3.3]heptane-2-carbonyl]-2,5-diazaspiro[3.4]octan-6-one]: 2.89 nM; for `N=[S@@](=O)(c1ccc(CC2CC3(C2)CN(C(=O)N2CC4(COCC(=O)N4)C2)C3)cc1)C(F)(F)F` [Example 288, 2-[6-[[4-(trifluoromethylsulfoni-midoyl)phenyl]methyl]-2-azaspiro[3.3]heptane-2-carbonyl]-8-oxa-2,5-diazaspiro[3.5]nonan-6-one]: 8.91 nM.
Regarding `N=[S@@](=O)(c1cccc(CC2CC3(C2)CN(C(=O)N2CC4(CCC(=O)N4)C2)C3)c1)C(F)(F)F` [Example 289, 2-[6-[[3-(trifluoromethylsulfoni-midoyl)phenyl]methyl]-2-azaspiro[3.3]heptane-2-carbonyl]-2,5-diazaspiro[3.4]octan-6-one], the IC50 stood at 0.44 nM.
In turn, `N=[S@@](=O)(c1cccc(CC2CC3(C2)CN(C(=O)N2CC4(CCCC(=O)N4)C2)C3)c1)C(F)(F)F` [Example 290, 2-[6-[[3-(trifluoromethylsulfoni-midoyl)phenyl]methyl]-2-azaspiro[3.3]heptane-2-carbonyl]-2,5-diazaspiro[3.5]nonan-6-one] returned an IC50 of 45.6 nM.
In turn, `N=[S@@](=O)(c1cccc(CC2CC3(C2)CN(C(=O)N2CC4(COCC(=O)N4)C2)C3)c1)C(F)(F)F` [Example 291, 2-[6-[[3-(trifluoromethylsulfoni-midoyl)phenyl]methyl]-2-azaspiro[3.3]heptane-2-carbonyl]-8-oxa-2,5-diazaspiro[3.5]nonan-6-one] came in with an IC50 of 1.27 nM.
For the compound `N=[S@](=O)(c1cccc(CC2CC3(C2)CN(C(=O)N2CC4(CCC(=O)N4)C2)C3)c1)C(F)(F)F` [Example 292, 2-[6-[[3-(trifluoromethylsulfoni-midoyl)phenyl]methyl]-2-azaspiro[3.3]heptane-2-carbonyl]-2,5-diazaspiro[3.4]octan-6-one], the IC50 turned out to be 1.29 nM.
In turn, `N=[S@](=O)(c1cccc(CC2CC3(C2)CN(C(=O)N2CC4(CCCC(=O)N4)C2)C3)c1)C(F)(F)F` [Example 293, 2-[6-[[3-(trifluoromethylsulfoni-midoyl)phenyl]methyl]-2-azaspiro[3.3]heptane-2-carbonyl]-2,5-diazaspiro[3.5]nonan-6-one] yielded an IC50 of 69.4 nM.
With `N=[S@](=O)(c1cccc(CC2CC3(C2)CN(C(=O)N2CC4(COCC(=O)N4)C2)C3)c1)C(F)(F)F` [Example 294, 2-[6-[[3-(trifluoromethylsulfoni-midoyl)phenyl]methyl]-2-azaspiro[3.3]heptane-2-carbonyl]-8-oxa-2,5-diazaspiro[3.5]nonan-6-one] the figure was 2.15 nM; with `O=C1CCC2(CN(C(=O)N3CC4(CC(Cc5ccc(S(=O)(=O)C(F)(F)F)cc5)C4)C3)C2)N1` [Example 295, 2-[6-[[4-(trifluoromethylsulfonyl)phenyl]methy]-2-azaspiro[3.3]heptane-2-carbonyl]-2,5-diazaspiro[3.4]octan-6-one], 0.07 nM; with `O=C1COCC2(CN(C(=O)N3CC4(CC(Cc5ccc(S(=O)(=O)C(F)(F)F)cc5)C4)C3)C2)N1` [Example 296, 2-[6-[[4-(trifluoromethylsulfonyl)phenyl]methyl]-2-azaspiro[3.3]heptane-2-carbonyl]-8-oxa-2,5-diazaspiro[3.5]nonan-6-one], 0.15 nM.
